ChEMBL document CHEMBL1132678, “Imidazole-containing diarylether and diarylsulfone inhibitors of farnesyl-protein transferase” (Bioorg Med Chem Lett, 1999)

Legend:
Rat1 = assay: Inhibition of proliferation of v-Ha-ras-transformed RAT1 cells on poly-(HEMA)-coated plates; format: functional, cell-based; details: Rattus norvegicus
[1] = biological target: Protein farnesyltransferase (Bos taurus, UniProt P29702+P49355); assay: Inhibition of bovine Farnesyltransferase in vitro.; format: protein-complex assay
[2] = biological target: Protein farnesyltransferase (Homo sapiens, UniProt P49354+P49356); assay: Inhibition of Farnesyltransferase; format: protein-complex assay

Question: What does the source list for Cc1cc(NCc2cncn2Cc2ccc(C#N)cc2)ccc1S(=O)(=O)c1ccccc1?
Answer: IC50 (Rat1): 16 nM; IC50 [1]: 1 nM

Question: With Cc1ncc(CNc2ccc(S(=O)(=O)c3ccccc3)cc2)n1Cc1ccc(C#N)cc1 as the compound, how does the IC50 (Rat1) read?
Answer: 177 nM

Question: And the IC50 [1]?
Answer: 93 nM

Question: How did the IC50 [1] turn out when c1ccc(Oc2ccc(NCc3cnc[nH]3)cc2)cc1 was run?
Answer: > 100000 nM

Question: With O=[N+]([O-])c1ccc(CN(Cc2c[nH]cn2)c2cccc(Oc3ccccc3)c2)cc1 as the compound, how does the IC50 [1] read?
Answer: 3200 nM

Question: CCCCN(Cc1cncn1Cc1ccc(C#N)cc1)c1ccc(Oc2ccccc2)cc1 was tested. Which IC50 [1] did it give?
Answer: 42 nM

Question: How did the IC50 [1] turn out when CCCCN(Cc1cn(Cc2ccc(C#N)cc2)cn1)c1ccc(Oc2ccccc2)cc1 was run?
Answer: > 100000 nM

Question: Which results are given for Cc1cc(N(Cc2cnc(C)n2Cc2ccc(C#N)cc2)CC2CC2)ccc1S(=O)(=O)c1ccccc1?
Answer: IC50 (Rat1): 109 nM; IC50 [1]: 8 nM

Question: How did the IC50 [1] turn out when N#Cc1ccc(Cn2cncc2CNc2ccc(Oc3ccccc3)cc2)cc1 was run?
Answer: 1300 nM

Question: With O=C(O)c1cccc(Oc2cccc(N(Cc3cnc[nH]3)Cc3cnc[nH]3)c2)c1 as the compound, how does the IC50 [1] read?
Answer: 19 nM

Question: How did the IC50 (Rat1) turn out when N#Cc1ccc(Cn2cncc2CNc2ccc(S(=O)(=O)c3ccccc3)cc2)cc1 was run?
Answer: 31 nM

Question: And the IC50 [1]?
Answer: 0.7 nM

Question: Which IC50 [1] does the source give for N#Cc1ccc(CN(Cc2cncn2Cc2ccc(C#N)cc2)c2ccc(Oc3ccccc3)cc2)cc1 here?
Answer: 8 nM

Question: Which IC50 [1] does the source give for CCCCN(Cc1cnc[nH]1)c1ccc(Oc2ccccc2)cc1 here?
Answer: > 100000 nM

Question: For N[C@H](CS)CNc1ccc(Oc2cccc(C(=O)O)c2)cc1, which IC50 [1] is on record?
Answer: 0.4 nM

Question: How did the IC50 [1] turn out when Cc1cc(N(Cc2cnc(C)n2Cc2ccc(C#N)cc2)C(=O)C2CC2)ccc1S(=O)(=O)c1ccccc1 was run?
Answer: 232 nM

Question: Cc1cc(NCc2cnc(C)n2Cc2ccc(C#N)cc2)ccc1S(=O)(=O)c1ccccc1 was tested. Which IC50 (Rat1) did it give?
Answer: 28 nM

Question: And the IC50 [1]?
Answer: 0.45 nM

Question: How did the IC50 [1] turn out when N[C@@H](CS)CNc1cccc(Oc2cccc(C(=O)O)c2)c1 was run?
Answer: 0.25 nM

Question: With O=[N+]([O-])c1ccc(CN(Cc2cnc[nH]2)c2ccc(Oc3ccccc3)cc2)cc1 as the compound, how does the IC50 [1] read?
Answer: 1000 nM

Question: With O=C(O)c1cccc(Oc2ccc(N(Cc3c[nH]cn3)Cc3c[nH]cn3)cc2)c1 as the compound, how does the IC50 [1] read?
Answer: 2.6 nM

Question: Which IC50 [1] does the source give for Cc1ncc(CN(Cc2ccc(C#N)cc2)c2ccc(S(=O)(=O)c3ccccc3)cc2)n1Cc1ccc(C#N)cc1 here?
Answer: 81 nM

Question: For CSCC[C@H](NC(=O)[C@H](Cc1c[nH]c2ccccc12)NC(=O)[C@@H](NC(=O)[C@@H](N)CS)C(C)C)C(=O)O, which IC50 [2] is on record?
Answer: 525 nM

Question: How did the IC50 [1] turn out when CCCCN(Cc1cncn1Cc1ccc(C#N)cc1)c1ccc(Sc2ccccc2)cc1 was run?
Answer: 140 nM

Question: Which IC50 [1] does the source give for N#Cc1ccc(Cn2cncc2CNc2ccc(C(=O)c3ccccc3)cc2)cc1 here?
Answer: 0.8 nM
